Data as given in ChEMBL document CHEMBL4017512 (J Med Chem, 2017).

Tests used:
[1] = Cytotoxicity against human HCT116/VM46 cells assessed as reduction in cell viability after 72 hrs by phosphatase assay; format: cell-based; conditions: HCT-116/VM46, 72 h
[2] = biological target: MDR1 (ABCB1, P-gp) ATPase (Homo sapiens, UniProt P08183); assay: Inhibition of MDR1 (unknown origin) ATPase activity expressed in sf9 cell membranes assessed as residual activity at 20 uM using ATP as substrate preincubated for 5 mins followed by substrate addition measured after 20 mins by spectrophotometric method relative to control; conditions: Sf9 cell membranes expressing MDR1, probe ATP, read-out: Activity
LS174T = assay: Antiproliferative activity against human LS174T cells after 72 hrs by phosphatase assay; format: functional, cell-based
LNCaP = assay: Antiproliferative activity against human LNCAP cells after 72 hrs by phosphatase assay; format: functional, cell-based
PA-1 = assay: Antiproliferative activity against human PA1 cells after 72 hrs by phosphatase assay; format: functional, cell-based; conditions: PA-1, 72 h
L1210 [3] = assay: Antiproliferative activity against mouse L1210 cells after 72 hrs by phosphatase assay; format: functional, cell-based; conditions: L1210, 72 h
MDA-MB-468 = assay: Antiproliferative activity against human MDA-MB-468 cells after 72 hrs by phosphatase assay; format: functional, cell-based; conditions: MDA-MB-468, 72 h
[4] = Antiproliferative activity against human HCT116/VP35 cells after 72 hrs by phosphatase assay; format: functional, cell-based; conditions: HCT-116, 72 h
HCT-116 [5] = assay: Antiproliferative activity against human HCT116 cells after 72 hrs by phosphatase assay; format: functional, cell-based; conditions: HCT-116, 72 h
[6] = Displacement of BODIPY-labeled vinblastine from tubulin (unknown origin) at 18 uM after 60 mins by fluorescence assay relative to control; conditions: Homo sapiens
[7] = Apparent permeability from basolateral to apical side in human Caco2 cells; format: ADME, cell-based; conditions: Caco-2
NCI-H520 = assay: Antiproliferative activity against human NCI-H520 cells after 72 hrs by phosphatase assay; format: functional, cell-based; conditions: NCI-H520, 72 h
L1210 [8] = assay: Antiproliferative activity against mouse L1210 cells; format: functional, cell-based
HCT-116 [9] = assay: Antiproliferative activity against human HCT116 cells; format: functional, cell-based
[10] = Cytotoxicity against human HCT116/VM46 cells assessed as reduction in cell viability; format: cell-based; conditions: HCT-116/VM46

MDR1 (ABCB1, P-gp) ATPase, sequence (P08183 whole entry): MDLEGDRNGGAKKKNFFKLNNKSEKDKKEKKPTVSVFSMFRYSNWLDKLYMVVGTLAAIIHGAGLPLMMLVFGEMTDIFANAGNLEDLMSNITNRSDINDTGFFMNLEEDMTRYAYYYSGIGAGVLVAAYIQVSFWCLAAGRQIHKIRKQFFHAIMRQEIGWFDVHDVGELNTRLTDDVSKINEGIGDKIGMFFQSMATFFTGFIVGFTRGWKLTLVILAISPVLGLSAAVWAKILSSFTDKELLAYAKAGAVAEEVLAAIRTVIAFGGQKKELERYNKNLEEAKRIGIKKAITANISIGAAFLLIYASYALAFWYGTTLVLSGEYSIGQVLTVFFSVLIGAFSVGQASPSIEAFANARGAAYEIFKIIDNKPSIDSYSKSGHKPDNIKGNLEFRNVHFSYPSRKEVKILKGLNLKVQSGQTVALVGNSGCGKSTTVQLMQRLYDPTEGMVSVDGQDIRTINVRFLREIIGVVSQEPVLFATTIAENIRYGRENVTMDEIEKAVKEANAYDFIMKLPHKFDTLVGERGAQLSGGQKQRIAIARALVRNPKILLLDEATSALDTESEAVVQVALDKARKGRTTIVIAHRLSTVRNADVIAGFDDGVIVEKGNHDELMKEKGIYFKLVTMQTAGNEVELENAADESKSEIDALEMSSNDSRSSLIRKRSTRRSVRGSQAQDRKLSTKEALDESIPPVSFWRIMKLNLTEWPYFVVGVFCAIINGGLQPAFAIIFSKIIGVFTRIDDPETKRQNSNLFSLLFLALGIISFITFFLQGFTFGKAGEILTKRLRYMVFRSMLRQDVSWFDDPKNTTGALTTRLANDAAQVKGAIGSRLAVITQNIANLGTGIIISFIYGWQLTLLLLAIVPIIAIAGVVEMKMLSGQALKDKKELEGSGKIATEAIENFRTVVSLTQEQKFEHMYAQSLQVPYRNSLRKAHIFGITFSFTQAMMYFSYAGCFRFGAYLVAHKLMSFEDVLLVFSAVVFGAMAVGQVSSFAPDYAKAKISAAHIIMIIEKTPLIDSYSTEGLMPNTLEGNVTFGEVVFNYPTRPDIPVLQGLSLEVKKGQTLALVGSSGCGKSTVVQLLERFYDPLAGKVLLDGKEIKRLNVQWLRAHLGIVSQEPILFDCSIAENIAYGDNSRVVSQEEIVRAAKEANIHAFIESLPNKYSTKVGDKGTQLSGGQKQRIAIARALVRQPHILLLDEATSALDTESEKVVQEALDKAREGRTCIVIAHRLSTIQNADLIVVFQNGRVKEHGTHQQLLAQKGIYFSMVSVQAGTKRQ

Row | SMILES | IC50 [1] [nM] | activity at 20 min, 20 µM [2] [%] | IC50 (LS174T) [nM] | IC50 (LNCaP) [nM] | IC50 (PA-1) [nM] | IC50 (L1210 [3]) [nM] | IC50 (MDA-MB-468) [nM] | IC50 [4] [nM] | IC50 (HCT-116 [5]) [nM] | inhibition [6] [%] | Papp B→A [7] [×10⁻⁶ cm/s] | IC50 (NCI-H520) [nM] | IC50 (L1210 [8]) [nM] | IC50 (HCT-116 [9]) [nM] | IC50 [10] [nM]
1 | CC[C@]1(NC(=O)c2ccc3c(c2)CCCC3)C[C@H]2CN(CCc3c([nH]c4ccccc34)[C@@](C(=O)OC)(c3cc4c(cc3OC)N(C)[C@H]3[C@@](O)(C(=O)OC)[C@H](OC(C)=O)[C@]5(CC)C=CCN6CC[C@]43[C@@H]65)C2)C1 | 8.7 to 14 | 0 | 6.6 | 3.9 | 2.6 | 3.3 | 6.3 | 6.2 | 4.9 | 63 | 2 | 1.8 | – | – | –
2 | CC[C@]1(NC(=O)C(F)(F)F)C[C@H]2CN(CCc3c([nH]c4ccccc34)[C@@](C(=O)OC)(c3cc4c(cc3OC)N(C)[C@H]3[C@@](O)(C(=O)OC)[C@H](OC(C)=O)[C@]5(CC)C=CCN6CC[C@]43[C@@H]65)C2)C1 | – | – | – | – | – | – | – | – | – | – | – | – | 660 | 690 | 8100
